Test results taken from ChEMBL document CHEMBL1201862, “PubChem BioAssay data set” (2004).
Activity calls are given as the source filed them.

Key:
Large T antigen = Large T antigen (Simian virus 40, UniProt P03070); assay type: functional, Betapolyomavirus macacae;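 also: Confirmatory-stage PubChem screen for compounds that inhibit SV40 T antigen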
[1] = target: T1, RNA-binding protein pos-1 (Caenorhabditis elegans, UniProt G5EF15); assay: inhibitors of POS-1/mex-3 RNA binding, dose response, biochemical, fluorescence polarization (AID 1964);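 also: purified POS-1 fused to maltose binding protein made in E. coli; potency of compounds blocking POS-1 binding to fluorescent RNA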
T1 sequence (G5EF15 whole entry): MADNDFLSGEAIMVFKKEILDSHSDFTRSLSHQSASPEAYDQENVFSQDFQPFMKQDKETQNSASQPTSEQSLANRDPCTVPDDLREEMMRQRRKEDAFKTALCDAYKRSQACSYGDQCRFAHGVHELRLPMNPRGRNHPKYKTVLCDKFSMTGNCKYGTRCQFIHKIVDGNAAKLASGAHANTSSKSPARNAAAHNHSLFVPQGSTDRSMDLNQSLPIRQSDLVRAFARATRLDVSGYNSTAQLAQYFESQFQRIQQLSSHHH

[2] = target: T2, Induced myeloid leukemia cell differentiation protein Mcl-1 (Homo sapiens, UniProt Q07820); assay: MCL1-BIM BH3 interaction inhibitors, dose response, biochemical, fluorescence polarization, BIM-BH3 peptide, 1536-well (AID 2217)
T2 sequence (Q07820 whole entry): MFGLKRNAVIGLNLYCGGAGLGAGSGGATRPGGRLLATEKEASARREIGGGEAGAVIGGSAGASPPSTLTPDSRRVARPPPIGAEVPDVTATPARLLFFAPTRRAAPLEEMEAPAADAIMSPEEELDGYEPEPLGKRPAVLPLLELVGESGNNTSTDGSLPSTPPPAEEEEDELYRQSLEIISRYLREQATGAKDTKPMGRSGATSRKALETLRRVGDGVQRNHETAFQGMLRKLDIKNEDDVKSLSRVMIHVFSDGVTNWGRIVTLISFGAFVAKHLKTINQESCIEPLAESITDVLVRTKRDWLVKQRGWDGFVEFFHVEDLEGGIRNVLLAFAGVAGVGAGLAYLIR

Bcl-2-like protein 1 = Bcl-2-like protein 1 (Homo sapiens, UniProt Q07817); assay: BCL-XL inhibitors, dose response, selectivity assay for MCL1 inhibitor project, biochemical, fluorescence polarization, 1536-well (AID 2218)
Bcl-2-like protein 1, sequence (Q07817 whole entry): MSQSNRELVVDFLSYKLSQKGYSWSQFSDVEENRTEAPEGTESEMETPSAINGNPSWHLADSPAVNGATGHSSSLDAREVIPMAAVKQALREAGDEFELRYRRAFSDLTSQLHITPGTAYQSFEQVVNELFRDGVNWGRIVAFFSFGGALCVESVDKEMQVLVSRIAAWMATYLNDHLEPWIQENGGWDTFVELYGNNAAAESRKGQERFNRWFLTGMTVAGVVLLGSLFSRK

[3] = target: T3, Low molecular weight phosphotyrosine protein phosphatase (Homo sapiens, UniProt P24666); assay type: functional; conditions: read-out: IC50_Mean;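 also: Dose-response confirmation assay measuring inhibition of LMPTP enzyme activity by fluorescence intensity read-out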
T3 sequence (P24666 whole entry): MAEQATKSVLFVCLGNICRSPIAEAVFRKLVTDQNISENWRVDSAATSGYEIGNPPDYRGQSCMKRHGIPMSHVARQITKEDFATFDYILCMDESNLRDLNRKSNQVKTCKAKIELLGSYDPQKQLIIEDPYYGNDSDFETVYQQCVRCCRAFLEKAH

[4] = target: T4, Zinc finger protein mex-5 (Caenorhabditis elegans, UniProt Q9XUB2); assay: MEX-5/TCR-2 RNA interaction inhibitors, dose response, biochemical, C. elegans, fluorescence polarization (AID 1960)
T4 sequence (Q9XUB2 whole entry): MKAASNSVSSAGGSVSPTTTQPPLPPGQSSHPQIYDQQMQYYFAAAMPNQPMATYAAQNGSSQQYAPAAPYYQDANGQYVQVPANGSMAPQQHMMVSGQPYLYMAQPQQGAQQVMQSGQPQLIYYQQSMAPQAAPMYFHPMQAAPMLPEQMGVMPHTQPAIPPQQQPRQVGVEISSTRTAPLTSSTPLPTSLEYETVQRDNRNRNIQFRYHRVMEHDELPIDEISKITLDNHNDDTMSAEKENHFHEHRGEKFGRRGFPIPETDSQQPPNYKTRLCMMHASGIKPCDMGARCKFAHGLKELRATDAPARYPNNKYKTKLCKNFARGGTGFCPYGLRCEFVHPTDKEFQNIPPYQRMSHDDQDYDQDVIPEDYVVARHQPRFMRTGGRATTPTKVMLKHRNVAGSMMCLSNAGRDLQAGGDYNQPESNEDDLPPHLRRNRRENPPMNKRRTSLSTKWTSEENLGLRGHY

[5] = target: T5, Neuropeptide Y receptor type 2 (Homo sapiens, UniProt P49146); assay type: functional, cell-based;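 also: HEK293 cells expressing the receptor and a CNG channel; stimulus was NPY near EC95 followed by isoproterenol to raise cAMP; antagonist potency measured as restoring cAMP signal that NPY suppresses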
T5 sequence (P49146 whole entry): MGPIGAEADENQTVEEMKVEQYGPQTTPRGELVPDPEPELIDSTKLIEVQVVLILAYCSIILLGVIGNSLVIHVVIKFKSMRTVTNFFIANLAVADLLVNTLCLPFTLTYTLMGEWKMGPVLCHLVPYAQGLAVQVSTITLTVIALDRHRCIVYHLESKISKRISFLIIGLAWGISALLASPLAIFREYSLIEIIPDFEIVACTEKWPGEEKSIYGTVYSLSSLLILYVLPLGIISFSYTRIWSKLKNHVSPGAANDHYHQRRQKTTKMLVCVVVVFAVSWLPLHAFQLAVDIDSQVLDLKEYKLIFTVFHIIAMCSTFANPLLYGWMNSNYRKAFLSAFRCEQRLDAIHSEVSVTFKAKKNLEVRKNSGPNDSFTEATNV

[6] = target: T6, Neuropeptide Y receptor type 1 (Homo sapiens, UniProt P25929); assay type: functional;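 also: HEK293 cells with a CNG channel challenged with NPY then isoproterenol; potency as antagonist that reverses NPY suppression of cAMP signal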
T6 sequence (P25929 whole entry): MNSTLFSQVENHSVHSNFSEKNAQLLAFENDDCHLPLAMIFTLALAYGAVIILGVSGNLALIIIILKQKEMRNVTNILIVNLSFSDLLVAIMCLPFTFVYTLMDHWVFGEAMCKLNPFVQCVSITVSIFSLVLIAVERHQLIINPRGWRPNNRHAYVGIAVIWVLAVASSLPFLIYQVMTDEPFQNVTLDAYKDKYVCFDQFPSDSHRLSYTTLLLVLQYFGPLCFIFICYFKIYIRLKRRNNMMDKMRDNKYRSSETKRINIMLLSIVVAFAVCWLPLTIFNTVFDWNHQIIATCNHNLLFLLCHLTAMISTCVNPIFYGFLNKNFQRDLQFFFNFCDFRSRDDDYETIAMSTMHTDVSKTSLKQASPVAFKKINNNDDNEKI

[7] = cytotoxicity toward NIH3T3 fibroblasts, dose response, counter-screen, cell-based, ATP luminescence, mouse fibroblasts (AID 2010); assay type: functional;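 also: cells exposed to compound for about 90 hours before reading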
[8] = inhibitors of intracellular T. cruzi replication, confirmation, NIH3T3 host cells, beta-gal luminescence (AID 2044); assay type: functional, cell-based;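 also: intracellular parasites grown in NIH/3T3 mouse fibroblasts as host cells; luminescent beta-galactosidase reporter signal from transgenic T. cruzi replicating inside host cells; inhibitors lower the luminescence signal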
Aminopeptidase N = target: T7, Aminopeptidase N (Plasmodium falciparum FcB1/Columbia, UniProt O96935); assay: P. falciparum M1AAP inhibitors, biochemical, fluorogenic H-Leu-NHMec substrate, 1536-well (AID 1445); parameters: species or system Plasmodium falciparum 3D7, 3D7
T7 sequence (O96935 whole entry): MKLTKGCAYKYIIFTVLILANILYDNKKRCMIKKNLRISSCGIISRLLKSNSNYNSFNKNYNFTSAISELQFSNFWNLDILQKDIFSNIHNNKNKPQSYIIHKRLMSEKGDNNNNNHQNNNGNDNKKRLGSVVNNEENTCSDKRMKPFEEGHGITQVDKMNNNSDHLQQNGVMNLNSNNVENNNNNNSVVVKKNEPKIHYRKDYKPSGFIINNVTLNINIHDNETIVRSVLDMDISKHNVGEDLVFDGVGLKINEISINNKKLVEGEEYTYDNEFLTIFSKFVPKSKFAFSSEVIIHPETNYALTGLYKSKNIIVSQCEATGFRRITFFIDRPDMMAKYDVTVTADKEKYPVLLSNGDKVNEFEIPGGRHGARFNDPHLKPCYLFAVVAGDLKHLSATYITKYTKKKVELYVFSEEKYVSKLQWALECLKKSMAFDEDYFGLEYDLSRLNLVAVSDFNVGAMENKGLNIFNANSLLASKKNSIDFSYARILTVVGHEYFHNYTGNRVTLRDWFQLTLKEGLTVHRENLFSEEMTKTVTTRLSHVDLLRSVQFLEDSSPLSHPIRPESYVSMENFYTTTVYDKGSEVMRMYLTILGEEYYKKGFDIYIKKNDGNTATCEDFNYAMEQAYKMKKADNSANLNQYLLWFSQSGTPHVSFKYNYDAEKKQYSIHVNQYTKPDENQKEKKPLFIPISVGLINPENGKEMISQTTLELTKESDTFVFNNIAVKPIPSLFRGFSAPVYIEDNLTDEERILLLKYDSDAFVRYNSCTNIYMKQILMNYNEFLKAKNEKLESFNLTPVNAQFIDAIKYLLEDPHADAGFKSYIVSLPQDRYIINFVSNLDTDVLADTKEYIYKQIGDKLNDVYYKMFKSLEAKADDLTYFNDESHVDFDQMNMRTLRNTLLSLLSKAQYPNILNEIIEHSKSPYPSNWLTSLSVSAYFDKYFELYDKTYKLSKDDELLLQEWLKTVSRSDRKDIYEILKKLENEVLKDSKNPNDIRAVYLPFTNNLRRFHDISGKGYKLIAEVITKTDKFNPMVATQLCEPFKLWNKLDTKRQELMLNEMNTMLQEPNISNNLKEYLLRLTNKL

Protein Tat = target: T8, Protein Tat (Human immunodeficiency virus type 1 group M subtype B (isolate HXB2)(HIV-1), UniProt P04608); assay type: functional;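 also: tat binding to TAR RNA read out by fluorescence polarization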
T8 sequence (P04608 whole entry): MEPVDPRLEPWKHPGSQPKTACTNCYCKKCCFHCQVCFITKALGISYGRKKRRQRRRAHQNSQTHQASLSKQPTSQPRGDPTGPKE

Bcl-2-like protein 10 = target: T9, Bcl-2-like protein 10 (Homo sapiens, UniProt Q9HD36); assay: displacers of TR3 peptide from Bcl-B, primary screen, selectivity assay for Bfl-1 inhibitor project, biochemical, fluorescence polarization, FITC-TR3 peptide (AID 748);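 also: fluorescence polarization from a fluorescein-labelled TR3 peptide binding purified Bcl-B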
T9 sequence (Q9HD36 whole entry): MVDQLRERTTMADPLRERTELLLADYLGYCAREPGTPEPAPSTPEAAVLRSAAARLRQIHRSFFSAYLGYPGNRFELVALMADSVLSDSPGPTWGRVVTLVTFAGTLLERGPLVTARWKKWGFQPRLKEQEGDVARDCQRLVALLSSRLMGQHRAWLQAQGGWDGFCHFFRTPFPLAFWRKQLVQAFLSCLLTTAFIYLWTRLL

Estrogen receptor beta = Estrogen receptor beta (Homo sapiens, UniProt Q92731); assay: ERβ–SRC-3 coactivator interaction inhibitors, confirmation, orthogonal assay, biochemical, ELISA, streptavidin-HRP readout (AID 1060)
Estrogen receptor beta, sequence (Q92731 whole entry): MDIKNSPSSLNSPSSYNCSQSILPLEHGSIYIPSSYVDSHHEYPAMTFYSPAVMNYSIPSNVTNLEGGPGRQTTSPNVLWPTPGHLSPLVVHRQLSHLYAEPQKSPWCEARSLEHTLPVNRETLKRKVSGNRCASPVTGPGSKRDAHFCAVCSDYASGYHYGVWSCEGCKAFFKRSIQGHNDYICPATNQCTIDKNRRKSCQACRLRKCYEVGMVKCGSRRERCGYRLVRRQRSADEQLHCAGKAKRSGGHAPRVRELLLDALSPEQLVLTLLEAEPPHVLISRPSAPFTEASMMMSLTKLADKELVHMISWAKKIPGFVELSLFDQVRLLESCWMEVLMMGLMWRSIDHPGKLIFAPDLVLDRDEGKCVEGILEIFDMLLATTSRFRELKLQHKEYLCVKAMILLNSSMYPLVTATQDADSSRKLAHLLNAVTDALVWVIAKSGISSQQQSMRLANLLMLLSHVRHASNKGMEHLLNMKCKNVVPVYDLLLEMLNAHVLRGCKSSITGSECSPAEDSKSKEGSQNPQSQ

[9] = target: T2, Induced myeloid leukemia cell differentiation protein Mcl-1; assay type: functional
Genome polyprotein = Genome polyprotein (dengue virus type 2, UniProt P29990); assay: Dengue-2 NS5 methyltransferase inhibitors, primary screen, biochemical, confirmation dose response (AID 588689); assay type: functional
Genome polyprotein, sequence (P29990 2492-3391 limits assumed): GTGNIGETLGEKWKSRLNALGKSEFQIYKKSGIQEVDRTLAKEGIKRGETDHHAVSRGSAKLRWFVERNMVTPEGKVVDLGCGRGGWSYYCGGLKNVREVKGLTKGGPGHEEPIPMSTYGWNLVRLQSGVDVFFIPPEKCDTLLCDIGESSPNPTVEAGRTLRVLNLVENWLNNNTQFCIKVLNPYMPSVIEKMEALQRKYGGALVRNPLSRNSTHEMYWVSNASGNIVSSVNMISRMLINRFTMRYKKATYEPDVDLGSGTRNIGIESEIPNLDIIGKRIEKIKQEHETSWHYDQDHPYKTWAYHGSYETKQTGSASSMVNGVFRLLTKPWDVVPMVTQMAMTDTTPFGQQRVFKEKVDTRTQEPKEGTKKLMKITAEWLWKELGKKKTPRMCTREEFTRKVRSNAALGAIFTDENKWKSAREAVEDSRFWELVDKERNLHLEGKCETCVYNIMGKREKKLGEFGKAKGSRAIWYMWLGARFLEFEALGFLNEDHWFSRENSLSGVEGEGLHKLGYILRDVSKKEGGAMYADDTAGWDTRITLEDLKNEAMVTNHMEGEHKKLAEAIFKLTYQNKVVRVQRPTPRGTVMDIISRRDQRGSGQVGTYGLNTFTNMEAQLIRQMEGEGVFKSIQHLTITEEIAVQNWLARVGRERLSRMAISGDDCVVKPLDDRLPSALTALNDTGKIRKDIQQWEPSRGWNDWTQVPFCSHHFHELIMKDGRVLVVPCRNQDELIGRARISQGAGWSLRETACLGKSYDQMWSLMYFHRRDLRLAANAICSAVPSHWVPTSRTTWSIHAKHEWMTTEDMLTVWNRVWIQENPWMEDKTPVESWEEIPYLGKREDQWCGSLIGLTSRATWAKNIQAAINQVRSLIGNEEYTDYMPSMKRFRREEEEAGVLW

[10] = Luminescence Cell-Based Dose Response HTS to Identify Activators of Luciferase Translation or Activity in H4 […] Cells. [Related pubchem assays: 1829 (Project Summary), 1814 (Primary HTS)]; assay type: functional
H4 = assay: Luminescence Cell-Based Dose Response HTS to Identify Activators of 5'UTR Stem-Loop Driven Prion Protein mRNA Translation in H4 Neuroglioblastoma Cells. [Related pubchem assays: 1829 (Project Summary), 1814 (Primary HTS)]; assay type: functional; conditions: Homo sapiens
[11] = Luminescence Cell-Based Dose Confirmation HTS to Identify Activators of 5'UTR Stem-Loop Driven Alpha-Synuclein mRNA Translation in H4 Neuroglioblastoma Cells. [Related pubchem assays: 1829 (Project Summary), 1814 (Primary HTS)]; assay type: functional
[12] = Luminescence Cell-Based Dose Response to Identify Activators of 5'UTR Stem-Loop Driven Prion Protein mRNA Translation in H4-C Neuroglioblastoma Cells. [Related pubchem assays: 1829 (Project Summary), 1814 (Primary HTS)]; assay type: functional
[13] = Luminescence Cell-Based Dose Response to Identify Activators of Luciferase Translation or Activity in H4-C Neuroglioblastoma Cells. [Related pubchem assays: 1829 (Project Summary), 1814 (Primary HTS)]; assay type: functional
[14] = Luminescence Cell-Based Dose Confirmation to Identify Activators of 5'UTR Stem-Loop Driven Alpha-Synuclein mRNA Translation in H4 Neuroglioblastoma Cells. [Related pubchem assays: 1829 (Project Summary), 1814 (Primary HTS)]; assay type: functional
BJ [15] = assay: cells; assay type: functional, cell-based; conditions: Homo sapiens
BJ [16] = assay: cytotoxicity toward Ras-transformed BJeLR fibroblasts, dose response, cell-based, alamar blue fluorescence, cherrypicked samples (AID 2631); assay type: functional; conditions: Homo sapiens;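 also: confirmatory dose-response assay in RAS-dependent BJ fibroblasts engineered with TERT, LT and ST, with cytotoxicity read by fluorescence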
[17] = growth suppression of beta-catenin-knockout colon cells, dose response, cell-based, HCT116, human colon tumor (AID 1045); assay type: functional;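 also: HCT116 colon tumor cells with beta catenin knocked out; cells exposed to compound for 60 hours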
BJ [18] = assay: cytotoxicity toward BJ-TERT-LT-ST fibroblasts, dose response, cell-based, RAS-independent, luminescence (AID 1935); assay type: functional; conditions: Homo sapiens;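 also: BJ fibroblasts immortalized with TERT plus LT and ST oncogenes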
BJ [19] = assay: cytotoxicity toward BJ-TERT fibroblasts, dose response, cell-based, RAS-independent, luminescence (AID 1933); assay type: functional; conditions: Homo sapiens
[20] = cytotoxicity toward DRD oncogenic fibroblasts, dose response, cell-based, non-viral oncogenic, luminescence (AID 1934); assay type: functional; conditions: Homo sapiens
[21] = growth suppression of PTEN-null colon cells, dose response, cell-based, HCT116 PTEN knockout (AID 1047); assay type: functional;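 also: HCT116 colon tumor cells with PTEN knocked out; cells exposed to compound for 60 hours before readout; potency for loss of cell viability measured by luminescence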

Large T antigen, sequence (P03070 whole entry, the tested form may be a part): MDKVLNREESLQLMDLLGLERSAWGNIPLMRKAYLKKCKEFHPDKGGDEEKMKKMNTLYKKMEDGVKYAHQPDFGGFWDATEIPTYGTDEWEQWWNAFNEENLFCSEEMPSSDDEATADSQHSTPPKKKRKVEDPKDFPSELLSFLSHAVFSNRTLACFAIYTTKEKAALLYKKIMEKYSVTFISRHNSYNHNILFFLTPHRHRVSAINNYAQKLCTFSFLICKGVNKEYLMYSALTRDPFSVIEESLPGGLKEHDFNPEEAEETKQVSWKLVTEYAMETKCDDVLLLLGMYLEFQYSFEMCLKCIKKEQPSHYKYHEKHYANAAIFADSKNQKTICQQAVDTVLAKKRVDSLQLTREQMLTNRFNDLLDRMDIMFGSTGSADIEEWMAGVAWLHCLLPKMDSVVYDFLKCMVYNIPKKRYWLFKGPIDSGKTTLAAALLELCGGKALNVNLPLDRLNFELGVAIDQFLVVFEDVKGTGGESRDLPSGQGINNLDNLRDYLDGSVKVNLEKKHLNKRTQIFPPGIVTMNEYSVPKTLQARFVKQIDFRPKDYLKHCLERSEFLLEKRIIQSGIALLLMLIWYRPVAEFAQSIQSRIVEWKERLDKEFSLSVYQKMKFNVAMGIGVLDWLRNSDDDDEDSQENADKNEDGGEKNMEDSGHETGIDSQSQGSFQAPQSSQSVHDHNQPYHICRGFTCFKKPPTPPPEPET

SMILES: Cc1ccc(-c2cc(-c3ccco3)c(C#N)c(=O)[nH]2)cc1
- IC50 (Large T antigen): 64.5 µM (active)
- EC50 [1]: 26.1 µM (active)
- IC50 [2]: > 12.1 µM (not active)
- IC50 (Bcl-2-like protein 1): > 109 µM (not active)
- IC50 [3]: 49.2 µM (inactive)
- EC50 [4]: 8.36 µM (inconclusive)

SMILES: CN(C)CCCSc1nc(-c2ccccc2)nc2c1CCC2
- IC50 [5]: 18.2 µM (not active)
- IC50 [6]: 7.33 µM (active)
- EC50 [7]: > 60 µM (not active)
- EC50 (cells): 0.12 µM (active)
- EC50 [8]: < 0.1 µM (active)

SMILES: O=C(CSc1nnc(-c2ccco2)c(-c2ccco2)n1)Nc1ccccc1
- IC50 (Aminopeptidase N): 97.7 µM (active)
- IC50 (Protein Tat): 5.16 µM (inconclusive)
- IC50 (Bcl-2-like protein 10): 15.3 µM (active)
- IC50 (Estrogen receptor beta): < 0.023 µM (not active)
- IC50 [9]: 3.11 µM (active)
- IC50 (Genome polyprotein): > 100 µM (active)

SMILES: Cc1ccc(-c2cc(NC(=O)c3ccccc3)on2)cc1
- EC50 [10]: 0.137 µM (active)
- EC50 (H4): 9.75 µM (active)
- EC50 [11]: < 0.1 µM (active)
- EC50 [12]: 0.632 µM (active)
- EC50 [13]: 0.334 µM (active)
- EC50 [14]: 0.463 µM (active)

SMILES: O=C(/C=C/c1cccc2ccccc12)c1ccncc1
- IC50 [5]: 4.95 µM (active)
- IC50 [6]: 5.47 µM (active)
- EC50 (BJ [15]): > 150 µM (inconclusive)
- EC50 (BJ [16]): > 133 µM (inactive)
- EC50 [17]: 5.26 µM (active)
- EC50 (BJ [18]): > 75 µM (inconclusive)
- EC50 (BJ [19]): 10.2 µM (inconclusive)
- EC50 [20]: 16.5 µM (active)
- EC50 [21]: 8.54 µM (active)

SMILES: Clc1ccccc1/C=N/Nc1cc(N2CCOCC2)ncn1
- EC50 (H4): 9.34 µM (active)
- EC50 [11]: < 0.1 µM (active)
- EC50 [12]: 1.05 µM (active)
- EC50 [13]: 0.394 µM (active)
- EC50 [14]: 0.564 µM (active)
